Results taken from ChEMBL document CHEMBL1154911, “Structure and biosynthesis of amphidinol 17, a hemolytic compound from Amphidinium carterae” (J Nat Prod, 2010).
The source made the active and inactive calls. The rule behind the calls is not given here.

Columns and labels:
Kluyveromyces marxianus = experiment: Antifungal activity against Candida kefyr ATCC 2512 by disk diffusion method; type: functional, organism-based
Aspergillus niger = experiment: Antifungal activity against Aspergillus niger ATCC 16404 by disk diffusion method; type: functional, organism-based
[1] = Toxicity in human RBC assessed as hemolytic activity after 24 hrs by microtiter plate assay; type: cell-based, Erythrocyte; conditions: human red blood cells (RBC)

For C=CCC/C=C/C=C/C=C/CC/C=C/[C@@H](O)[C@H](O)C1O[C@@H]([C@H](O)[C@H](O)C(=C)CC[C@@H](O)C2C[C@@H](O)[C@@H](O)[C@H]([C@@H](O)[C@H](O)/C=C(\C)CC[C@H](O)C[C@H](O)[C@H](O)[C@@H](C)C[C@H](O)C(O)C(C)CCC(O)CCCC(O)CCCCCOS(=O)(=O)O)O2)C[C@@H](O)[C@H]1O (stereo partly drawn) [AMPHIDINOL 17], the Activity (Kluyveromyces marxianus) was “inactive”, the Activity (Aspergillus niger) was “inactive” and the EC50 at 24 h [1] was 4.9 µM.
